According to patent US4218477A, “Primary aminoacylanilides, methods of making the same and use as antiarrhythmic drugs” (priority 1976, dated 1980):
Read-outs that look alike come from different tables or passages of the source.

Experiments:
[1] = tested on: chloroform-induced arrhythmias; assay: animal or person; conditions: Mus musculus
[2] = tested on: chloroform-induced arrhythmias; conditions: mouse, in vivo
[3] = tested on: chloroform induced fibrillation; assay: Protection against chloroform induced fibrillation in mice, subcutaneous, potency relative to lidocaine (Table IV); assay type: in vivo; conditions: s.c., 20 min, statistical mean (confidence limits)
Protocol: (§1) The experiments on mice were performed according to a modification of the method described by J. W. Lawson, "Antiarrhythmic activity of some isoquinoline derivatives determined by a rapid screening procedure in the mouse", J. Pharm. Exp. Therap. Vol. 160, pp. 22-31 (1968). This method is based upon the observation that when an unanesthetized, untreated mouse is exposed to chloroform vapor its respiration soon ceases and at that time both electrocardiographic and visual inspection reveal that the cardiac ventricles are fibrillating. If the mouse is treated appropriately with known antiarrhythmic agents prior to exposure to chloroform, the respiratory failure is not accompanied by ventricular fibrillation.
The procedure used was a modification of the method previously described. The modification involved using a standard time of 20 minutes for each test run and four different doses of the same drug. Route of administration was subcutaneous.

ventricular fibrillation [4] = assay: Protection against chloroform induced fibrillation in the guinea pig, intraperitoneal (Table V); assay type: in vivo; conditions: 326 mg/kg i.p., 20 min before chloroform
Protocol: Guinea pigs (250-350 g) were placed individually into a series of 4000 ml beakers containing cotton and 100 ml of chloroform. After cessation of respiration the animal was removed from the beaker, the thorax was opened and the heart was examined for the presence or absence of ventricular fibrillation. The nature of the cardiac rhythm was confirmed by electrocardiographic recordings.
A single dose (about 1-5 ml) of each test compound was administered intraperitoneally by a 25 gauge needle twenty minutes before the animals were placed in chloroform.

ventricular arrhythmias [5] = assay: animal or person
Protocol: Tests on dogs with the compound 2-amino-2',6'-propionoxylidide were conducted according to a modification of the method described by A. S. Harris in "Delayed Development of Ventricular Ectopic Rhythms Following Experimental Coronary Occlusions", Circ. Vol. 1, pp. 1318-1328 (1950). In this method the dogs were anesthetized, the heart was exposed, and the anterior descending branch of the left coronary artery was ligated in two stages. The thorax was closed and the dog was allowed to recover from the anesthesia. […] B. B. Clark and J. R. Cummings, "Arrhythmias Following Experimental Coronary Occlusion and Their Response to Drugs", Annals New York Academy of Sciences, Vol. 65, pp. 543-551 (1956). […] The electrocardiographic, cardiovascular and other drug effects were monitored.
The dosage schedule was: 1st hr.: 15 mg/kg/hr; 2nd hr.: 30 mg/kg/hr; 3rd hr.: 60 mg/kg/hr. Infusions were stopped at the first sign of toxicity other than emesis.
The compound 3-amino-2',6'-butyroxylidide was also tested on dogs, according to a modification of the method of Harris as previously described. As in the previously described tests, unanesthetized dogs were supported in canvas slings and were treated either intravenously or orally with doses of 3-amino-2',6'-butyroxylidide. The electrocardiographic, cardiovascular and other drug effects were monitored.

ventricular arrhythmias [6] = assay type: in vivo, dogs
Protocol: Vol. 1, pp. 1318-1328 (1950). […] The electrocardiographic, cardiovascular and other drug effects were monitored.
Table II summarizes the results of oral administration:
Dogs #215 and #220 given 50 mg/kg dose at 0 mins and 100 mg/kg dose at 24
The electrocardiographic, cardiovascular and other drug effects were monitored.

pKa = assay type: physicochemical; conditions: 23; read-out: pkaa^23
frog sciatic nerve = assay: Local anesthetic effect in vitro on the frog sciatic nerve; conditions: 5 min; 20 mM, after 5 minutes; read-out: block of the action potential of the nerve
ventricular fibrillation [7] = assay: Protection against chloroform induced ventricular fibrillation in mice, oral (Table I); assay type: in vivo, female Swiss albino mice (HAM/ICR)
Protocol: as §1

[8] = cited from earlier work
mice [9] = assay: Ataxia just before CHCl3 challenge in mice, oral (Table I); assay type: in vivo, female Swiss albino mice (HAM/ICR)
Protocol: as §1

mice [10] = assay: Acute oral toxicity in mice (24 Hr. mortality); conditions: oral, mice, 24 hr; dose to kill one of a thousand
cardiac arrhythmias = conditions: in vivo; cited from earlier work
[11] = Acute oral toxicity in mice (24 Hr. mortality); conditions: mouse, in vivo, po
mice [12] = conditions: mouse, in vivo, po, 1440 min
[13] = dose LD0.1, drug given 10 min before CHCl3 challenge
[14] = dose LD0.1, drug given 20 min before CHCl3 challenge
[15] = dose LD0.1, drug given 40 min before CHCl3 challenge
[16] = dose LD0.1, drug given 80 min before CHCl3 challenge

## CCNC(C)C(=O)Nc1c(C)cc(C)cc1C (centres unmarked)
[1]
  ED50: 162 mg/kg
[2]
  incidence of ataxia: 100%
  incidence of convulsions: 90%

## Cc1cccc(C)c1NC(=O)[C@@H](C)N [2-amino-2',6'-propionoxylidide]
[3]
  Relative Potency (ED50 test compound/ED50 lidocaine): 0.45 (0.26 - 0.78)

## CCc1cccc(CC)c1NC(=O)CN [2-amino-2', 6'-diethylacetanilide, 2-amino-2',6'-diethylacetanilide]
[3]
  Relative Potency (ED50 test compound/ED50 lidocaine): 0.22 (0.13 - 0.36)

## CCc1cccc(CC)c1NC(=O)C(C)N (centres unmarked) [2-amino-2', 6'-diethylpropionanilide, 2-amino-2',6'-diethylpropionanilide]
[3]
  Relative Potency (ED50 test compound/ED50 lidocaine): 0.48 (0.27 -0.73)

## CCc1cccc(C)c1NC(=O)CN [2-amino-2'-ethyl-6'-methyl acetanilide, 2-amino-2'-ethyl-6'-methylacetanilide]
[3]
  Relative Potency (ED50 test compound/ED50 lidocaine): 0.27 (0.14 - 0.40)

## Cc1cccc(C)c1NC(=O)CC(C)N (centres unmarked) [3-amino-2',6'-butyroxylidide]
Ventricular fibrillation [4]
  Percent of Population Protected: 100%
Ventricular arrhythmias [5]; dog, in vivo, iv
  adverse reactions: unaccompanied by any discernible adverse reactions
Ventricular arrhythmias [5]; intravenous doses, dogs
  suppression of the ventricular arrhythmias: distinct suppression of the ventricular arrhythmias
Ventricular arrhythmias [5]; intravenous, antiarrhythmic doses, dogs (Table VI)
  toxic side-effects: minimal toxic side-effects
Ventricular arrhythmias [5]; intravenous, individual dogs
  Toxicity: Convulsions: None
  Toxicity: Deaths: None
[3]
  Relative Potency (ED50 test compound/ED50 lidocaine): 0.99 (0.60 - 1.9)
Ventricular arrhythmias [6]; dog, in vivo, po
  adverse reactions: unaccompanied by any discernible adverse reactions
Ventricular arrhythmias [6]; oral doses, dogs
  suppression of the ventricular arrhythmias: distinct suppression of the ventricular arrhythmias

## Cc1cc(C)c(NC(=O)CCN)c(C)c1 [3-amino-2', 4', 6'-propionomesidide, 3-amino-2',4',6'-propionomesidide]
pKa
  pKa: 8.7 to 8.8

## Cc1cccc(C)c1NC(=O)CCN [3-amino-2', 6'-propionoxylidide, 3-amino-2',6'-propionoxylidide]
[3]
  Relative Potency (ED50 test compound/ED50 lidocaine): 0.4 (0.2 - 0.8)

## CCc1cccc(C)c1NC(=O)CCN [3-amino-2'-ethyl-6'-methylpropionanilide]
[3]
  Relative Potency (ED50 test compound/ED50 lidocaine): 0.29 (0.09 - 0.81)

## Cc1cccc(C)c1NC(=O)[C@H](C)N [(+)-2-amino-2',6'-propionoxylidide]
[3]
  Relative Potency (ED50 test compound/ED50 lidocaine): 0.11 (0.06 - 0.21)

## CCN(CC)CC(=O)Nc1c(C)cccc1C [Lidocaine, 2-diethylamino-2',6'-acetoxylidide]
Frog sciatic nerve
  inhibition at 20000 µM: 78%
Ventricular fibrillation [7]; [13]
  Proportion of mice protected against fibrillation at LD0.1: 9/10
Ventricular fibrillation [7]; [14]
  Proportion of mice protected against fibrillation at LD0.1: 10/10
Ventricular fibrillation [7]; [15]
  Proportion of mice protected against fibrillation at LD0.1: 7/10
Ventricular fibrillation [7]; [16]
  Proportion of mice protected against fibrillation at LD0.1: 0/10
[8]; in vivo
  duration of blood levels: fairly short
[8]; oral
  levels of the drug in the blood: low levels of the drug in the blood
  oral effectiveness: not orally effective
[8]; oral, probably due to functions of the liver
  loss of the drug after oral administration: pronounced loss of the drug
Mice [9]; dose LD0.1, 10 min
  Proportion of mice having ataxia just before CHCl3 challenge: 0/10
Mice [9]; dose LD0.1, 20 min
  Proportion of mice having ataxia just before CHCl3 challenge: 9/10
Mice [9]; dose LD0.1, 40 min
  Proportion of mice having ataxia just before CHCl3 challenge: 0/10
Mice [9]; dose LD0.1, 80 min
  Proportion of mice having ataxia just before CHCl3 challenge: 0/10
Mice [10]
  24 Hr. Mortality LD0.1: 154 mg/kg
Ventricular arrhythmias [5]; i.v. infusion 15, 30, 60 mg/kg/hr, dogs tested: lidocaine 2, test compound 1, abnormal beats less than 5% of total
  Number of dogs showing antiarrhythmic effect: 2

## CCN(CC)CCNC(=O)c1ccc(N)cc1 [Procainamide]
Cardiac arrhythmias
  side effects: exhibit undesirable side effects
Ventricular fibrillation [7]; dose LD0.1, drug given 5 min before CHCl3 challenge
  Proportion of mice protected against fibrillation at LD0.1: 0/10
Ventricular fibrillation [7]; [13]
  Proportion of mice protected against fibrillation at LD0.1: 1/10
Ventricular fibrillation [7]; [14]
  Proportion of mice protected against fibrillation at LD0.1: 0/10
Mice [9]; dose LD0.1, 5 min
  Proportion of mice having ataxia just before CHCl3 challenge: 0/10
Mice [9]; dose LD0.1, 10 min
  Proportion of mice having ataxia just before CHCl3 challenge: 0/10
Mice [9]; dose LD0.1, 20 min
  Proportion of mice having ataxia just before CHCl3 challenge: 0/10
[11]
  LD50 at 24 h: 643 mg/kg
Mice [12]
  24 Hr. Mortality LD0.1: 248 mg/kg

## C=C[C@H]1C[N@@]2CC[C@H]1C[C@@H]2[C@@H](O)c1ccnc2ccc(OC)cc12 [Quinidine]
Cardiac arrhythmias
  side effects: exhibit undesirable side effects
Ventricular fibrillation [7]; [14]
  Proportion of mice protected against fibrillation at LD0.1: 10/10
Ventricular fibrillation [7]; [15]
  Proportion of mice protected against fibrillation at LD0.1: 9/9
Ventricular fibrillation [7]; [16]
  Proportion of mice protected against fibrillation at LD0.1: 9/9
Mice [9]; dose LD0.1, 20 min
  Proportion of mice having ataxia just before CHCl3 challenge: 0/10
Mice [9]; dose LD0.1, 40 min
  Proportion of mice having ataxia just before CHCl3 challenge: 2/10
Mice [9]; dose LD0.1, 40 min group
  death: 1 death
Mice [9]; dose LD0.1, 80 min group
  death: 1 death
[11]
  LD50 at 24 h: 382 mg/kg
Mice [10]
  24 Hr. Mortality LD0.1: 348 mg/kg

## O=C1NC(=O)C(c2ccccc2)(c2ccccc2)N1 [diphenylhydantoin]
Cardiac arrhythmias
  side effects: exhibit undesirable side effects

## CC(C)NCC(O)COc1cccc2ccccc12 (centres unmarked) [propranolol]
Cardiac arrhythmias
  side effects: exhibit undesirable side effects
